Values joined by “and” are separate entries in the source; they are usually repeats but may differ in a detail not shown here. Equal entries are not always repeated. Inconclusive results and toxic doses are left out. Rule as the data show it: active = T/C of 150% or more; inactive = T/C below 125%.
System: L1210 leukemia ip in BDF1 mice, survival T/C
Assay: NCI In Vivo Anticancer Drug Screen. Data for tumor model L1210 Leukemia (intraperitoneal) in B6D2F1 (BDF1) mice
Details: endpoint: mean survival time, higher = longer survival
In short: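 Survival endpoint. Drug-treated group vs vehicle group, expressed as T divided by C. Tumor passaged by transplantation.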

[1] = dose: 100.0 mg/kg/injection, schedule: Q04DX002 (ip), vehicle: saline with Tween-80
[2] = dose: 400.0 mg/kg/injection, schedule: Q04DX002 (ip), vehicle: saline with Tween-80
[3] = dose: 100.0 mg/kg/injection, schedule: Q01DX009 (ip), vehicle: saline
[4] = dose: 200.0 mg/kg/injection, schedule: Q01DX009 (ip), vehicle: saline
[5] = dose: 400.0 mg/kg/injection, schedule: Q01DX009 (ip), vehicle: saline
[6] = dose: 100.0 mg/kg/injection, schedule: Q01DX009 (ip), vehicle: Klucel (hydroxypropylcellulose) (HPC)
[7] = dose: 200.0 mg/kg/injection, schedule: Q01DX009 (ip), vehicle: Klucel (hydroxypropylcellulose) (HPC)
[8] = dose: 400.0 mg/kg/injection, schedule: Q01DX009 (ip), vehicle: Klucel (hydroxypropylcellulose) (HPC)
[9] = dose: 25.0 mg/kg/injection, schedule: Q01DX009 (ip), vehicle: saline
[10] = dose: 50.0 mg/kg/injection, schedule: Q01DX009 (ip), vehicle: saline
[11] = dose: 100.0 mg/kg/injection, schedule: Q04DX003 (ip), vehicle: Klucel (hydroxypropylcellulose) (HPC)
[12] = dose: 200.0 mg/kg/injection, schedule: Q04DX003 (ip), vehicle: Klucel (hydroxypropylcellulose) (HPC)
[13] = dose: 400.0 mg/kg/injection, schedule: Q04DX003 (ip), vehicle: Klucel (hydroxypropylcellulose) (HPC)
[14] = dose: 100.0 mg/kg/injection, schedule: Q01DX001 (ip), vehicle: saline
[15] = dose: 200.0 mg/kg/injection, schedule: Q01DX001 (ip), vehicle: saline
[16] = dose: 400.0 mg/kg/injection, schedule: Q01DX001 (ip), vehicle: saline
[17] = dose: 50.0 mg/kg/injection, schedule: Q01DX009 (ip), vehicle: water
[18] = dose: 100.0 mg/kg/injection, schedule: Q01DX009 (ip), vehicle: water
[19] = dose: 200.0 mg/kg/injection, schedule: Q01DX009 (ip), vehicle: water
[20] = dose: 50.0 mg/kg/injection, schedule: Q01DX001 (ip), vehicle: saline
[21] = dose: 100.0 mg/kg/injection, schedule: Q01DX001 (ip), vehicle: Klucel (hydroxypropylcellulose) (HPC)
[22] = dose: 200.0 mg/kg/injection, schedule: Q01DX001 (ip), vehicle: Klucel (hydroxypropylcellulose) (HPC)
[23] = dose: 400.0 mg/kg/injection, schedule: Q01DX001 (ip), vehicle: Klucel (hydroxypropylcellulose) (HPC)

Measured: T/C

COc1cc2oc3cc(C)oc(=O)c3c2cc1OC
inactive: [1] 106 % of control | dose: 200.0 mg/kg/injection, schedule: Q04DX002 (ip), vehicle: saline with Tween-80 95 % of control | [2] 103 % of control

O=C1c2cc(Br)cc(Br)c2NCCC1(Br)Br
inactive: dose: 100.0 mg/kg/injection, schedule: Q01DX001 (ip), vehicle: carboxymethylcellulose (CMC) 91 % of control | dose: 200.0 mg/kg/injection, schedule: Q01DX001 (ip), vehicle: carboxymethylcellulose (CMC) 91 % of control | dose: 400.0 mg/kg/injection, schedule: Q01DX001 (ip), vehicle: carboxymethylcellulose (CMC) 94 % of control

O=[N+]([O-])c1cc(S(=O)(=O)O)cc(S(=O)(=O)O)c1O
inactive: [3] 102 % of control | dose: 100.0 mg/kg/injection, schedule: Q04DX003 (ip), vehicle: saline 94 % of control | [4] 94 % of control | dose: 200.0 mg/kg/injection, schedule: Q04DX003 (ip), vehicle: saline 100 % of control | [5] 91 % of control | dose: 400.0 mg/kg/injection, schedule: Q04DX003 (ip), vehicle: saline 93 % of control

O=C(Nc1ccc(Cl)cc1[N+](=O)[O-])N1CCN(c2ccccc2)CC1
inactive: dose: 44.0 mg/kg/injection, schedule: Q01DX009 (ip), vehicle: Klucel (hydroxypropylcellulose) (HPC) 101 % of control | dose: 66.0 mg/kg/injection, schedule: Q01DX009 (ip), vehicle: Klucel (hydroxypropylcellulose) (HPC) 97 % of control | [6] 101 % of control | dose: 150.0 mg/kg/injection, schedule: Q01DX009 (ip), vehicle: Klucel (hydroxypropylcellulose) (HPC) 95 % of control | [7] 96 % of control | [8] 101 % of control

CCN(CC)CCCOC(=O)/C=C/c1c(C)[nH]c(=O)[nH]c1=O
inactive: dose: 6.25 mg/kg/injection, schedule: Q01DX009 (ip), vehicle: saline 106 % of control | dose: 12.5 mg/kg/injection, schedule: Q01DX009 (ip), vehicle: saline 97 % of control | dose: 12.5 mg/kg/injection, schedule: Q04DX003 (ip), vehicle: saline 102 % of control | [9] 96 % of control | dose: 25.0 mg/kg/injection, schedule: Q04DX003 (ip), vehicle: saline 103 % of control | [10] 103 % of control | dose: 50.0 mg/kg/injection, schedule: Q04DX003 (ip), vehicle: saline 116 % of control

Cc1cccc(Cl)c1NC(=O)NCCCl
inactive: [11] 94 % of control | [12] 92 % of control | [13] 94 % of control

CSc1ncnc2c1c(Br)cn2C1OC(CO)C(O)C1O (stereo not given)
inactive: [14] 100 % of control | [15] 108 % of control | [16] 114 % of control

CCOC(=O)CC(C)C(Br)(C(=O)OCC)C(=O)OCC (stereo not given)
inactive: dose: 25.0 mg/kg/injection, schedule: Q01DX009 (ip), vehicle: water 109 % of control | [17] 111 % of control | [18] 100 % of control | [19] 96 % of control

Cc1cc(C)c(O)c(CN(C)C)c1.[Cu+2]
inactive: [20] 98 % of control | [14] 98 % of control

BrC1CCC(Br)C(Br)CCC1Br (stereo not given)
inactive: [21] 101 % of control | [6] 104 % of control | [22] 97 % of control | [7] 97 % of control | [23] 95 % of control | [8] 90 % of control

N=C(N)S/C=C/C(=O)O
inactive: dose: 25.0 mg/kg/injection, schedule: Q04DX002 (ip), vehicle: saline with Tween-80 96 % of control | dose: 50.0 mg/kg/injection, schedule: Q04DX002 (ip), vehicle: saline with Tween-80 96 % of control | [1] 96 % of control and 98 % of control

Cc1nn(C)c(N)c1C#N
inactive: [9] 97 % of control | [10] 97 % of control | [21] 107 % of control | [3] 111 % of control | [22] 104 % of control | [4] 106 % of control | [23] 104 % of control | [5] 100 % of control

CCOCCOCCOC(C)Oc1cc(OC)ccc1OC (stereo not given)
inactive: dose: 100.0 mg/kg/injection, schedule: Q04DX002 (ip), vehicle: saline 107 % of control | dose: 200.0 mg/kg/injection, schedule: Q04DX002 (ip), vehicle: saline 93 % of control | dose: 400.0 mg/kg/injection, schedule: Q04DX002 (ip), vehicle: saline 101 % of control

COc1cccc2c(=O)cc(C)[nH]c12
inactive: [17] 104 % of control | [18] 102 % of control | dose: 100.0 mg/kg/injection, schedule: Q04DX003 (ip), vehicle: water 101 % of control | [19] 109 % of control | dose: 200.0 mg/kg/injection, schedule: Q04DX003 (ip), vehicle: water 96 % of control | dose: 400.0 mg/kg/injection, schedule: Q01DX009 (ip), vehicle: water 105 % of control | dose: 400.0 mg/kg/injection, schedule: Q04DX003 (ip), vehicle: water 108 % of control

O=[N+]([O-])c1cc(Cl)cc(Br)c1O
inactive: dose: 12.5 mg/kg/injection, schedule: Q04DX003 (ip), vehicle: Klucel (hydroxypropylcellulose) (HPC) 100 % of control | dose: 25.0 mg/kg/injection, schedule: Q04DX003 (ip), vehicle: Klucel (hydroxypropylcellulose) (HPC) 102 % of control | dose: 50.0 mg/kg/injection, schedule: Q04DX003 (ip), vehicle: Klucel (hydroxypropylcellulose) (HPC) 105 % of control | [11] 103 % of control

O=C(Oc1ccccc1)C(O)CO (stereo not given)
inactive: dose: 100.0 mg/kg/injection, schedule: Q01DX009 (ip), vehicle: saline with Tween-80 92 % of control | dose: 200.0 mg/kg/injection, schedule: Q01DX009 (ip), vehicle: saline with Tween-80 96 % of control | dose: 400.0 mg/kg/injection, schedule: Q01DX009 (ip), vehicle: saline with Tween-80 93 % of control

Cc1ccc([Si](C)(C)C)cc1
inactive: dose: 25.6 mg/kg/injection, schedule: Q04DX002 (ip), vehicle: saline with Tween-80 90 % of control | dose: 64.0 mg/kg/injection, schedule: Q04DX002 (ip), vehicle: saline with Tween-80 104 % of control | dose: 160.0 mg/kg/injection, schedule: Q04DX002 (ip), vehicle: saline with Tween-80 90 % of control | [2] 90 % of control

COc1ccc(OC)c(-n2cccc2C(=O)O)c1
inactive: dose: 100.0 mg/kg/injection, schedule: Q04DX002 (ip), vehicle: Klucel (hydroxypropylcellulose) (HPC) 90 % of control | dose: 200.0 mg/kg/injection, schedule: Q04DX002 (ip), vehicle: Klucel (hydroxypropylcellulose) (HPC) 97 % of control | dose: 400.0 mg/kg/injection, schedule: Q04DX002 (ip), vehicle: Klucel (hydroxypropylcellulose) (HPC) 93 % of control

OC(Cc1ccccc1)(c1ccccc1)C(O)(Cc1ccccc1)c1ccccc1 (stereo not given)
inactive: [20] 94 % of control | [14] 94 % of control | [15] 94 % of control | [16] 94 % of control

ClCCN(CCCl)CCCNc1cc(-c2ccc(Cl)cc2)nc2cc(Cl)ccc12
inactive: dose: 5.0 mg/kg/injection, schedule: Q01DX001 (ip), vehicle: saline 101 % of control | dose: 10.0 mg/kg/injection, schedule: Q01DX001 (ip), vehicle: saline 101 % of control | dose: 20.0 mg/kg/injection, schedule: Q01DX001 (ip), vehicle: saline 109 % of control | dose: 40.0 mg/kg/injection, schedule: Q01DX001 (ip), vehicle: saline 104 % of control | dose: 80.0 mg/kg/injection, schedule: Q01DX001 (ip), vehicle: saline 92 % of control | [15] 106 % of control

Cc1ccccc1N=Cc1ccc2c(c1)OCO2
inactive: dose: 50.0 mg/kg/injection, schedule: Q01DX009 (ip), vehicle: Klucel (hydroxypropylcellulose) (HPC) 106 % of control | [6] 96 % of control | [11] 98 % of control | [7] 106 % of control | [12] 89 % of control | [13] 110 % of control

Brc1ccccn1
inactive: dose: 75.0 mg/kg/injection, schedule: Q01DX001 (ip), vehicle: saline 105 % of control
